Reference: patent publication US20100249132A1, “IMIDAZOLE DERIVATIVES” (MERCK PATENT GESELLSCHAFT MIT BESCHRANKTER HAFTUNG, priority 2007, published 2010)

Molecular target: T1, recombinant autotaxin (Homo sapiens, UniProt Q13822)
T1 construct: made in house; host or cells: Hi5 insect cells (baculovirus)
Experiment: Autotaxin test (enzyme test), Amplex Red fluorescence
Type: biochemical
Settings: substrate LPC 75 μM, Amplex Red detection, read-out: IC50 (autotaxin inhibition, enzyme test)
Experimental: Autotaxin Inhibition (Enzyme Test)
Autotaxin Test (Enzyme Test)
The autotaxin activity is measured indirectly using Amplex Red reagent. Amplex Red is measured here as fluorogenic indicator for the H2O2 formed. In detail, autotaxin converts the substrate lysophosphatidylcholine (LPC) into phosphocholine and lysophosphatidylic acid (LPA). After this reaction, the phosphocholine is reacted with alkaline phosphatase to give inorganic phosphate and choline. In the next step, choline is oxidised by choline oxidase to give betaine, with formation of H2O2. H2O2 reacts with Amplex Red reagent in the presence of peroxidase (horseradish peroxidase) in a 1:1 stoichiometry and forms the highly fluorescent resorufin. The fluorescence is measured in a reaction-dependent kinetic mode in order that fluorescent signals from possible other fluorescent substances which are not involved in the reaction can be corrected out.
1.5 μl of a standard solution or of the test substances (substances with the name A(n)) in individual concentrations dissolved in 20 mM Hepes pH 7.2 with a maximum of 7.7% of DMSO are pre-incubated together with 10 μl (16 ng) of highly purified recombinant autotaxin in a black microtitre plate provided with 384 wells at 22° C. for 30 min. The reaction is then initiated by addition of 5 μl of L-α-lysophosphatidylcholine (LPC), where the final concentration of LPC is 75 μM. The mixture is incubated at 37° C. for 90 min. After the incubation, Amplex Red reagent, peroxidase (horseradish peroxidase) and choline oxidase is added, and the fluorescence is immediately measured at 612 nm with excitation of 485 nm in a “Tecan Ultra multimode” reader. The activity of autotaxin is calculated indirectly via detection of the H2O2 formed. • Material: • Microtitre plate: PS microplate, 384 wells, small volume, black Corning, Cat #3677 • Protein: recombinant autotaxin (Baculovirale Hi5 Expression) • Substrate: L-α-lysophosphatidylcholine (chicken egg)); Avanti Polar Lipids #830071 P • Standard: C14 LPA, Avanti Polar Lipids, Cat #857120P • Detection reagent: Amplex Red reagent; Invitrogen #A12222; dissolved in 1.923 ml of DMSO peroxidase type VI-A (horseradish) from Sigma #P6782; dissolved in 7.45 ml of test buffer, choline oxidase; Sigma #C5896; dissolved in 2.47 ml of test buffer • Detection reagent mix: 1:100 dilution of Amplex Red reagent in test buffer • Test buffer: 200 mM Tris HCl, Merck, Cat #1.08219, pH 7.9, 0.1% of BSA, lipid-free, Roche Cat #775835

Compound	IC50 [µM]
CCc1ccc(NC(=O)Nc2[nH]c(COc3ccc(CC(=O)O)cc3)nc2C(N)=O)cc1 [Compound A61, (4-{4-Carbamoyl-5-[3-(4-ethylphenyl)ureido]-1H-imidazol-2-ylmethoxy}phenyl)acetic acid]	1 to 10
Cc1cc(Cl)ccc1NC(=O)Nc1[nH]c(COc2ccc(CC(=O)O)cc2)nc1C(N)=O [Compound A62, (4-{4-Carbamoyl-5-[3-(4-chloro-2-methylphenyl)-ureido]-1H-imidazol-2-ylmethoxy}phenyl)acetic acid]	1 to 10
COc1cc(NC(=O)Nc2[nH]c(COc3ccc(CC(=O)O)cc3)nc2C(N)=O)cc(OC)c1 [Compound A63, (4-{4-Carbamoyl-5-[3-(3,5-dimethoxyphenyl)-ureido]-1H-imidazol-2-ylmethoxy}phenyl)acetic acid]	> 10
NC(=O)c1nc(COc2ccc(CC(=O)O)cc2)[nH]c1NC(=O)Nc1ccc(F)c(C(F)(F)F)c1 [Compound A64, (4-{4-Carbamoyl-5-[3-(4-fluoro-3-trifluoromethyl-phenyl)ureido]-1 H-imidazol-2-ylmethoxy}phenyl)-acetic acid]	> 10
NC(=O)c1nc(Cc2ccc(C(=O)O)s2)[nH]c1NC(=O)Nc1cccc(C(F)(F)F)c1 [Compound A65, 5-{4-Carbamoyl-5-[3-(3-trifluoromethylphenyl)-ureido]-1H-imidazol-2-ylmethyl}thiophene-2-carboxylic acid]	> 10
NC(=O)c1nc(Cc2ccc(C(=O)O)s2)[nH]c1NC(=O)Nc1ccc(C(F)(F)F)cc1 [Compound A66, 5-{4-Carbamoyl-5-[3-(4-trifluoromethylphenyl)-ureido]-1H-imidazol-2-ylmethyl}thiophene-2-carboxylic acid]	1 to 10
Cc1ccccc1NC(=O)Nc1[nH]c(Cc2ccc(C(=O)O)s2)nc1C(N)=O [Compound A67, 5-[4-Carbamoyl-5-(3-o-tolylureido)-1H-imidazol 2-ylmethyl]thiophene-2-carboxylic acid]	> 10
CC(C)c1ccc(NC(=O)Nc2[nH]c(Cc3ccc(C(=O)O)s3)nc2C(N)=O)cc1 [Compound A68, 5-{4-Carbamoyl-5-[3-(4-isopropylphenyl)ureido]-1H-imidazol-2-ylmethyl}thiophene-2-carboxylic acid]	1 to 10
Cc1ccc(NC(=O)Nc2[nH]c(Cc3ccc(C(=O)O)s3)nc2C(N)=O)cc1 [Compound A69, 5-[4-Carbamoyl-5-(3-p-tolylureido)-1H-imidazol 2-ylmethyl]thiophene-2-carboxylic acid]	> 10
Cc1ccc(NC(=O)Nc2[nH]c(Cc3ccc(C(=O)O)s3)nc2C(N)=O)c(C)c1 [Compound A71, 5-{4-Carbamoyl-5-[3-(2,4-dimethylphenyl)-ureido]-1H-imidazol-2-ylmethyl}thiophene-2-carboxylic acid]	1 to 10
CCc1ccc(NC(=O)Nc2[nH]c(Cc3ccc(C(=O)O)s3)nc2C(N)=O)cc1 [Compound A72, 5-{4-Carbamoyl-5-[3-(4-ethylphenyl)ureido]-1H-imidazol-2-ylmethyl}thiophene-2-carboxylic acid]	1 to 10
Cc1cc(NC(=O)Nc2[nH]c(Cc3ccc(C(=O)O)s3)nc2C(N)=O)ccc1F [Compound A73, 5-{4-Carbamoyl-5-[3-(4-fluoro-3-methylphenyl)-ureido]-1H-imidazol-2-ylmethyl}thiophene-2-carboxylic acid]	> 10
Cc1cc(Cl)ccc1NC(=O)Nc1[nH]c(Cc2ccc(C(=O)O)s2)nc1C(N)=O [Compound A74, 5-{4-Carbamoyl-5-[3-(4-chloro-2-methylphenyl)-ureido]-1H-imidazol-2-ylmethyl}thiophene-2-carboxylic acid]	1 to 10
NC(=O)c1nc(Cc2ccc(C(=O)O)s2)[nH]c1NC(=O)Nc1ccc(F)c(C(F)(F)F)c1 [Compound A75, 5-{4-Carbamoyl-5-[3-(4-fluoro-3-trifluoromethyl-phenyl)ureido]-1H-imidazol-2-ylmethyl}-thiophene-2-carboxylic acid]	> 10
CCCCc1ccc(NC(=O)Nc2[nH]c(Cc3ccc(C(=O)NC4CCCCC4)o3)nc2C(N)=O)cc1 [Compound A77, 5-[3-(4-Butylphenyl)ureido]-2-(5-cyclohexyl-carbamoylfuran-2-ylmethyl)-1H-imidazole-4-carboxamide]	> 10
CCCCc1ccc(NC(=O)Nc2[nH]c(Cc3ccc(C(=O)N(CC)CC)o3)nc2C(N)=O)cc1 [Compound A78, 5-[3-(4-Butylphenyl)ureido]-2-(5-diethyl-carbamoylfuran-2-ylmethyl)-1H-imidazole-4-carboxamide]	> 10
CCCCc1ccc(NC(=O)Nc2[nH]c(Cc3ccc(C(=O)N(C)CCCC)o3)nc2C(N)=O)cc1 [Compound A79, 2-[5-(Butylmethylcarbamoyl)furan-2-ylmethyl]-5-[3-(4-butylphenyl)ureido]-1H-imidazole-4-carboxamide]	> 10
CCCCc1ccc(NC(=O)Nc2[nH]c(Cc3ccc(C(=O)N(CCCC)CCCC)o3)nc2C(N)=O)cc1 [Compound A80, 5-[3-(4-Butylphenyl)ureido]-2-(5-dibutyl-carbamoylfuran-2-ylmethyl)-1H-imidazole-4-carboxamide]	> 10
CCCCc1ccc(NC(=O)Nc2[nH]c(Cc3ccc(C(=O)N4CCCC4)o3)nc2C(N)=O)cc1 [Compound A81, 5-[3-(4-Butylphenyl)ureido]-2-[5-(pyrrolidine-1-carbonyl)furan-2-ylmethyl]-1H-imidazole-4-carboxamide]	> 10
CCCCc1ccc(NC(=O)Nc2[nH]c(Cc3ccc(C(=O)N4C[C@@H](C)O[C@@H](C)C4)o3)nc2C(N)=O)cc1 [Compound A82, 5-[3-(4-Butylphenyl)ureido]-2-[5-((5R,6S)-2,6-dimethylmorpholine-4-carbonyl)furan-2-yl-methyl]-1H-imidazole-4-carboxamide]	> 10
CCCCc1ccc(NC(=O)Nc2[nH]c(Cc3ccc(C(=O)N4CCOCC4)o3)nc2C(N)=O)cc1 [Compound A83, 5-[3-(4-Butylphenyl)ureido]-2-[5-(morpholine-4-carbonyl)furan-2-ylmethyl]-1H-imidazole-4-carboxamide]	> 10
CCCCc1ccc(NC(=O)Nc2[nH]c(Cc3ccc(C(=O)N(C)c4ccccc4)o3)nc2C(N)=O)cc1 [Compound A84, 5-[3-(4-Butylphenyl)ureido]-2-[5-(methylphenyl-carbamoyl)furan-2-ylmethyl]-1H-imidazole-4-carboxamide]	1 to 10
CCCCc1ccc(NC(=O)Nc2[nH]c(Cc3ccc(C(=O)N4CCN(C)CC4)o3)nc2C(N)=O)cc1 [Compound A85, 5-[3-(4-Butylphenyl)ureido]-2-[5-(4-methyl-piperazine-1-carbonyl)furan-2-ylmethyl]-1H-imidazole-4-carboxamide]	1 to 10
CCCCc1ccc(NC(=O)Nc2[nH]c(Cc3ccc(C(=O)N4CCN(c5ccccc5)CC4)o3)nc2C(N)=O)cc1 [Compound A86, 5-[3-(4-Butylphenyl)ureido]-2-[5-(4-phenyl-piperazine-1-carbonyl)furan-2-ylmethyl]-1H-imidazole-4-carboxamide]	> 10
CCCCc1ccc(NC(=O)Nc2[nH]c(Cc3ccc(C(=O)N4CCC(C)CC4)o3)nc2C(N)=O)cc1 [Compound A87, 5-[3-(4-Butylphenyl)ureido]-2-[5-(4-methyl-piperidine-1-carbonyl)furan-2-ylmethyl]-1H-imidazole-4-carboxamide]	> 10
